Values of other authors, collected in US20230000899A1, “ALGINATE, POLYLYSINE, AND SEED PRESERVATIVE NUTRITIONAL PRODUCT AND DIGESTIVE AID” (Reflux Gourmet LLC, priority 2021, published 2023).

Tested on: laboratory mice
Conditions: certain laboratory mice; administered in high concentrations

Q: With Oc1ccc(C=Cc2cc(O)cc(O)c2)cc1 [resveratrol] as the molecule, how does the “extension of life span” value read?
A: Its value is “up to 50%”.
